Patent publication US8383622B2 (priority 2007, dated 2013)

assay: log k′ (degree of lipophilic character) by gradient HPLC; type: physicochemical; conditions: XTerra MS C18 column; acetonitrile/pH6.8 buffer gradient 5:95-95:5/20 min
Procedure: As to each compound, the measurement results of NMR or log k′ were disclosed.
log k′ is a value which means degree of the lipophilic character, and is calculated by the following formula. log k′=log(tR−t0)/t0 • tR: retention time of compound under gradient condition • t0: retention time of standard material not retained in column
XTerra MS C18 5 μm, 2.1×100 mm column (made by Waters) was used for measurement. The elution was a straight line inclination of acetonitrile/pH6.8 buffer (5:95˜95:5/20 min) at flow velocity 0.25 mL/min.

Compound	log k′
CCC(=O)N[C@]12CC3CC(C1)[C@@H](NC(=O)c1cnn(/C=C/C(C)(C)C(N)=O)c1OCC(C)C)C(C3)C2 [Compound I-20]	0.845
CC(C)COc1c(C(=O)NC2C3CC4CC2CC(OC(N)=O)(C4)C3)cnn1/C=C/C(C)(C)CO (stereo not shown) [Compound I-73]	0.876
COC(=O)NC(C)(C)/C=C/n1ncc(C(=O)N[C@H]2C3CCCC2C[C@@H](C#N)C3)c1OCC(C)C [Compound I-33]	0.955
CC(=O)NC(C)(C)/C=C/n1ncc(C(=O)N[C@H]2C3CCCC2C[C@@H](COC(N)=O)C3)c1OCC(C)C [Compound I-45]	0.865
COC(=O)NC(C)(C)CCn1ncc(C(=O)N[C@H]2C3CC4CC2C[C@](COC(N)=O)(C4)C3)c1OCC(C)C [Compound I-58]	0.899
CC(C)COc1c(C(=O)N[C@H]2C3CC4CC2C[C@](OC(N)=O)(C4)C3)cnn1/C=C/C(C)(C)NC(=O)C1CCCC1 [Compound I-49]	0.945
CC(=O)NC(C)(C)/C=C/n1ncc(C(=O)N[C@H]2C3CC4CC2C[C@](C(=O)NC(N)=O)(C4)C3)c1OCC(C)C [Compound I-67]	0.82
CC(C)COc1c(C(=O)N[C@H]2C3CC4CC2C[C@](OC(N)=O)(C4)C3)cnn1/C=C/C(C)(C)NC(=O)CCC1CCCC1 [Compound I-50]	0.989
Cc1nnc(C(C)(C)/C=C/n2ncc(C(=O)N[C@H]3C4CC5CC3C[C@](OC(N)=O)(C5)C4)c2OCC(C)C)o1 [Compound I-8]	0.883
CC(C)COc1c(C(=O)NC2CCCCCCCCC2)cnn1/C=C/C(C)(C)C(N)=O [Compound I-2]	1.014
CC(C)COc1c(C(=O)N[C@H]2C3CC4CC2C[C@](OC(N)=O)(C4)C3)cnn1/C=C/C(C)(C)NC(=O)C(C)C [Compound I-27]	0.903
CC(=O)NC(C)(C)/C=C/n1ncc(C(=O)N[C@H]2C3CCCC2C[C@@H](CO)C3)c1OCC(C)C [Compound I-43]	0.851
CC(=O)NC(C)(C)/C=C/n1ncc(C(=O)N[C@H]2C3CC4CC2C[C@](CO)(C4)C3)c1OC(C)C [Compound I-31]	0.819
C=CCC1C2CCC(C2)C1NC(=O)c1cnn(/C=C/C(C)(C)NC(C)=O)c1OCC(C)C (stereo not shown) [Compound I-14]	0.981
CC(C)COc1c(C(=O)N[C@H]2C3CC4CC2C[C@](O)(C4)C3)cnn1/C=C/C(C)(C)NC(=O)C1CCOCC1 [Compound I-79]	0.818
COC(=O)NC(C)(C)/C=C/n1ncc(C(=O)N[C@H]2C3CC4CC2C[C@](CO)(C4)C3)c1OC(C)C [Compound I-23]	0.864
COC(=O)N[C@]12CC3CC(C1)[C@@H](NC(=O)c1cnn(/C=C/C(C)(C)NC(C)=O)c1OCC(C)C)C(C3)C2 [Compound I-54]	0.886
CC(C)COc1c(C(=O)N[C@H]2C3CC4CC2C[C@](COC(N)=O)(C4)C3)cnn1/C=C/C(C)(C)CO [Compound I-74]	0.896
CCC(=O)NC(C)(C)/C=C/n1ncc(C(=O)N[C@H]2C3CCCC2C[C@@H](CO)C3)c1OCC(C)C [Compound I-69]	0.866
CONC(=O)[C@]12CC3CC(C1)[C@@H](NC(=O)c1cnn(/C=C/C(C)(C)NC(C)=O)c1OCC(C)C)C(C3)C2 [Compound I-60]	0.813

Compound	log k′
COC(=O)NC(C)(C)/C=C/n1ncc(C(=O)N[C@H]2C3CC4CC2C[C@](COC(N)=O)(C4)C3)c1OCC(C)C [Compound I-17]	0.916
CCC(=O)NC(C)(C)/C=C/n1ncc(C(=O)N[C@H]2C3CCCC2C[C@@H](COC(N)=O)C3)c1OCC(C)C [Compound I-70]	0.882
CC(=O)NC(C)(C)CCn1ncc(C(=O)N[C@H]2C3CC4CC2C[C@](OC(N)=O)(C4)C3)c1OCC(C)C [Compound I-11]	0.831
CNC(=O)OC[C@]12CC3CC(C1)[C@@H](NC(=O)c1cnn(/C=C/C(C)(C)NC(C)=O)c1OCC(C)C)C(C3)C2 [Compound I-66]	0.886
CCC(=O)N[C@]12CC3CC(C1)[C@@H](NC(=O)c1cnn(/C=C/C(C)(C)NC(=O)OC)c1OCC(C)C)C(C3)C2 [Compound I-21]	0.909
CC(=O)NC(C)(C)CCn1ncc(C(=O)N[C@H]2C3CC4CC2C[C@](COC(N)=O)(C4)C3)c1OCC(C)C [Compound I-57]	0.852
CC(C)COc1c(C(=O)N[C@H]2C3CC4CC2C[C@](COC(N)=O)(C4)C3)cnn1/C=C/C(C)(C)C(=O)NC(N)=O [Compound I-83]	0.87
CC(C)COc1c(C(=O)N[C@H]2C3CC4CC2C[C@](OC(N)=O)(C4)C3)cnn1/C=C/C(C)(C)NC(=O)C1CCOCC1 [Compound I-80]	0.852
CC(=O)NC[C@]12CC3CC(C1)[C@@H](NC(=O)c1cnn(/C=C/C(C)(C)NC(C)=O)c1OCC(C)C)C(C3)C2 [Compound I-56]	0.838
CC(=O)NC(C)(C)/C=C/n1ncc(C(=O)N[C@H]2C3CCCC2C[C@H](C(N)=O)C3)c1OCC(C)C [Compound I-5]	0.795
COC(=O)NC(C)(C)/C=C/n1ncc(C(=O)NC2CCCCCCCCC2)c1OCC(C)C [Compound I-3]	1.066
COC(=O)NC(C)(C)/C=C/n1ncc(C(=O)N[C@H]2C3CCCC2C[C@@H](COC(N)=O)C3)c1OCC(C)C [Compound I-46]	0.913
CC(C)COc1c(C(=O)N[C@H]2C3CC4CC2C[C@](O)(C4)C3)cnn1/C=C/C(C)(C)NC(=O)N1CCOCC1 [Compound I-81]	0.813
CCONC(=O)[C@]12CC3CC(C1)[C@@H](NC(=O)c1cnn(/C=C/C(C)(C)NC(C)=O)c1OCC(C)C)C(C3)C2 [Compound I-59]	0.833
CNC(=O)C(C)(C)/C=C/n1ncc(C(=O)N[C@H]2C3CC4CC2C[C@](OC(N)=O)(C4)C3)c1OCC(C)C [Compound I-61]	0.841
CC(C)COc1c(C(=O)N[C@H]2C3CC4CC2C[C@](OC(N)=O)(C4)C3)cnn1/C=C/C(C)(C)NC(=O)CC(C)C [Compound I-28]	0.927
COC(=O)NC(C)(C)/C=C/n1ncc(C(=O)NC23CCC(C(N)=O)(CC2)C3)c1OCC(C)C [Compound I-13]	0.822
CC(C)COc1c(C(=O)N[C@H]2C3CC4CC2C[C@](OC(N)=O)(C4)C3)cnn1/C=C/C(C)(C)C(=O)NC(N)=O [Compound I-18]	0.866
CC(=O)NC(C)(C)CCn1ncc(C(=O)N[C@H]2C3CC4CC2C[C@](CO)(C4)C3)c1OCC(C)C [Compound I-16]	0.842
CCC(=O)NC(C)(C)/C=C/n1ncc(C(=O)N[C@H]2C3CC4CC2C[C@](OC(N)=O)(C4)C3)c1OCC(C)C [Compound I-24]	0.876

Compound	log k′
CCNC(=O)C(C)(C)/C=C/n1ncc(C(=O)N[C@H]2C3CC4CC2C[C@](OC(N)=O)(C4)C3)c1OCC(C)C [Compound I-71]	0.868
CONC(=O)C(C)(C)/C=C/n1ncc(C(=O)N[C@H]2C3CC4CC2C[C@](OC(N)=O)(C4)C3)c1OCC(C)C [Compound I-65]	0.838
CONC(=O)C(C)(C)/C=C/n1ncc(C(=O)N[C@H]2C3CC4CC2C[C@](O)(C4)C3)c1OCC(C)C [Compound I-62]	0.794
CC(C)COc1c(C(=O)NC2C3CC4(O)CC2CC(O)(C3)C4)cnn1/C=C/C(C)(C)C(N)=O (stereo not shown) [Compound I-82]	0.682
CC(C)COc1c(C(=O)N[C@H]2C3CC4CC2C[C@](O)(C4)C3)cnn1/C=C/C(C)(C)NC(=O)C1CCCC1 [Compound I-35]	0.921
CC(=O)NCC(C)(C)/C=C/n1ncc(C(=O)N[C@H]2C3CC4CC2C[C@](O)(C4)C3)c1OCC(C)C [Compound I-64]	0.814
CC(C)COc1c(C(=O)N[C@H]2C3CC4CC2C[C@](OC(N)=O)(C4)C3)cnn1/C=C/C(C)(C)N1CCOC1=O [Compound I-22]	0.879
CC(C)COc1c(C(=O)N[C@H]2C3CC4CC2C[C@](OC(N)=O)(C4)C3)cnn1/C=C/C(C)(C)NC(=O)CCc1ccccc1 [Compound I-76]	0.946
CC(=O)NCC(C)(C)/C=C/n1ncc(C(=O)N[C@H]2C3CC4CC2C[C@](OC(N)=O)(C4)C3)c1OCC(C)C [Compound I-68]	0.85
CC(C)COc1c(C(=O)N[C@H]2C3CC4CC2C[C@](O)(C4)C3)cnn1/C=C/C(C)(C)NC(=O)C(C)C [Compound I-25]	0.87
CC(=O)NC(C)(C)/C=C/n1ncc(C(=O)N[C@H]2C3CC4CC2C[C@](OC(N)=O)(C4)C3)c1OCC(C)C [Compound I-10]	0.798
COC(=O)NC(C)(C)/C=C/n1ncc(C(=O)N[C@H]2C3CC4CC2C[C@](CO)(C4)C3)c1OCC(C)C [Compound I-19]	0.907
CC(C)COc1c(C(=O)N[C@H]2C3CC4CC2C[C@](OC(N)=O)(C4)C3)cnn1/C=C/C(C)(C)NC(=O)COc1ccccc1 [Compound I-75]	0.95
CC(=O)NC(C)(C)/C=C/n1ncc(C(=O)NC23CCC(C(N)=O)(CC2)C3)c1OCC(C)C [Compound I-12]	0.763
COCC(=O)NC(C)(C)/C=C/n1ncc(C(=O)N[C@H]2C3CC4CC2C[C@](OC(N)=O)(C4)C3)c1OCC(C)C [Compound I-51]	0.882
CC(=O)NC(C)(C)/C=C/n1ncc(C(=O)N[C@H]2C3CCCC2C[C@@H](C(N)=O)C3)c1OCC(C)C [Compound I-42]	0.805
CCCC(=O)NC(C)(C)/C=C/n1ncc(C(=O)N[C@H]2C3CC4CC2C[C@](O)(C4)C3)c1OCC(C)C [Compound I-34]	0.877
CC(C)COc1c(C(=O)N[C@H]2C3CC4CC2C[C@](O)(C4)C3)cnn1/C=C/C(C)(C)NC(=O)CC(C)C [Compound I-26]	0.895
